# Data from patent US9718792B2, “Isoxazoline hydroxamic acid derivatives as LpxC inhibitors” (priority 2014, dated 2017).
# Read-outs that look alike come from different tables or passages of the source.
# Experiments:
# P. aeruginosa PAO1 = assay: Susceptibility Testing (MIC, broth microdilution); assay type: cell-based, Pseudomonas aeruginosa; conditions: Pseudomonas aeruginosa, PAO1, 20 h, read-out: PAO1 MIC
# Procedure: Bacterial isolates were cultivated from −70° C. frozen stocks by two consecutive overnight passages at 35° C. in ambient air on 5% blood agar (Remel, Lenexa, Kans.). Quality control and P. aeruginosa ATCC 27853) is from the American Type Culture Collection (ATCC; Rockville, Md.) and PAO1 was received from Dr. K. Poole.
# Minimal Inhibitory Concentrations (MICs) were determined by the broth microdilution method in accordance with Clinical and Laboratories Institute (CLSI) guidelines. In brief, fresh bacterial overnight cultures were resuspended in sterile saline, adjusted to a 0.5 McFarland turbidity standard and then diluted […] in cation adjusted Mueller-Hinton Broth II (MHB; Remel BBL) to yield a final inoculum of approximately 5×10^5 colony-forming units (CFU)/mL. Two-fold serial dilutions of compounds were prepared in 100% dimethyl sulfoxide (DMSO) at 100-fold the highest final assay concentration; the resulting dilution series of compounds were diluted 1:10 with sterile water. Ten μl of the drug dilution series in 10% DMSO was transferred to microtiter wells and 90 μl of bacterial suspension was inoculated into the wells. All inoculated microdilution trays were incubated in ambient air at […] for 20 hours. Following incubation, assay plates were read in a microtiter plate reader at 600 nm and visually inspected to confirm the MIC endpoint well with the OD value. The lowest concentration of the compound that prevented visible growth was recorded as the MIC. Performance of the assay was monitored by testing ciprofloxacin against laboratory quality control strains in accordance with guidelines of the CLSI.
# P. aeruginosa LpxC = P. aeruginosa LpxC (Pseudomonas aeruginosa (strain ATCC 15692 / DSM 22644 / CIP 104116 / JCM 14847 / LMG 12228 / 1C / PRS 101 / PAO1), UniProt P47205); assay: P. aeruginosa LpxC Inhibition Assay; assay type: biochemical; conditions: 1 nM P. aeruginosa LpxC, 2 μM substrate, LC-MS/MS; read-out: PA LpxC IC50
# Text: The P. aeruginosa LpxC protein is produced according to the general method of Hyland et al (Journal of Bacteriology 1997 179, 2029-2037: Cloning, expression and purification of UDP-3-O-acyl-GIcNAc deacetylase from Pseudomonas aeruginosa: a metalloamidase of the lipid A biosynthesis pathway). The LC-MS/MS method for quantitation of LpxC product was developed using an Agilent 1200 Capillary HPLC system coupled to an Applied Biosystems MDS Sciex 4000QTRAP mass spectrometer. Both instruments are controlled using the Applied Biosystems MDS Sciex Analyst software. LpxC reaction product (UDP-3-O—(R-3-hydroxyacyl)-glucosamine) was produced by hydrolysis of LpxC substrate catalyzed by P.a. LpxC and purified using reversed phase chromatography on a Phenomenex Luna C18(2) 4.6×50 mm column. An LpxC product calibration curve was generated to evaluate the sensitivity and dynamic range of the LC-MS/MS method. Briefly, compounds are pre-incubated with 1 nM P. aeruginosa LpxC for 30 min. at room temperature. Reactions are initiated by the addition of 2 μM UDP-3-O—(R-3-hydroxydecanoyl)-GIcNAc. Reactions are conducted in a 384-well plate with a total volume of 50 μL in each well containing 50 mM Sodium phosphate pH 7.5, 0.005% Trition X-100 for 20 min at room temperature. After quenching with 1.8% HOAc (5 μL of a 20% HOAc added to each well), reaction mixtures are analyzed using the LC-MS/MS method and peak areas are transformed into product concentration using a LpxC product calibration curve. Total activity (0% inhibition control) is obtained from reactions with no inhibitors and 100% inhibition control is the background using quenched samples before reaction starts. For IC50 determinations, peak areas are converted to percent inhibition in Microsoft Excel. Percent inhibition values are plotted vs. log compound concentration using XLfit. Data is fit to the four-parameter logistic equation using the non-linear regression algorithm in XLfit to return the IC50 and hill slope values.
# [1] = P. aeruginosa PAO1, broth microdilution, 20 hours
Compound,MIC (P. aeruginosa PAO1; [1]),IC50 (P. aeruginosa LpxC),MIC (P. aeruginosa PAO1)
"CCCc1ccc(C2=NO[C@@H](C[C@](C)(C(=O)NO)S(C)(=O)=O)C2)cc1 [Compound 23, (R)—N-hydroxy-2-methyl-2-(methylsulfonyl)-3-((R)-3-(4-propylphenyl)-4,5-dihydroisoxazol-5-yl)propanamide]",0.5 µg/mL,< 500 pM,–
"C/C=C/c1ccc(C2=NO[C@@H](C[C@](C)(C(=O)NO)S(C)(=O)=O)C2)cc1 [Compound 24, (R)—N-hydroxy-2-methyl-2-(methylsulfonyl)-3-((R)-3-(4-((E)-prop-1-en-1-yl)phenyl)-4,5-dihydroisoxazol-5-yl)propanamide]",0.5 µg/mL,800 pM,–
"CC(O)C#CC#Cc1ccc(C2=NO[C@@H](C[C@](C)(C(=O)NO)S(C)(=O)=O)C2)cc1 (stereo partly drawn) [Compound 30, (2R)—N-hydroxy-3-((5R)-3-(4-(5-hydroxyhexa-1,3-diyn-1-yl)phenyl)-4,5-dihydroisoxazol-5-yl)-2-methyl-2-(methylsulfonyl)propanamide]",0.06 µg/mL,500 pM,–
"CCc1ccc(C2=NO[C@@H](C[C@](C)(C(=O)NO)S(C)(=O)=O)C2)cc1 [Compound 31, (R)-3-((R)-3-(4-ethylphenyl)-4,5-dihydroisoxazol-5-yl)-N-hydroxy-2-methyl-2-(methylsulfonyl)propanamide]",0.22 µg/mL,1000 pM,–
"CCSc1ccc(C2=NO[C@@H](C[C@](C)(C(=O)NO)S(C)(=O)=O)C2)cc1 [Compound 32, (R)-3-((R)-3-(4-(ethylthio)phenyl)-4,5-dihydroisoxazol-5-yl)-N-hydroxy-2-methyl-2-(methylsulfonyl)propanamide]",0.4 µg/mL,900 pM,–
"C[C@@](C[C@H]1CC(c2ccc(CCCF)cc2)=NO1)(C(=O)NO)S(C)(=O)=O [Compound 33, (R)-3-((R)-3-(4-(3-fluoropropyl)phenyl)-4,5-dihydroisoxazol-5-yl)-N-hydroxy-2-methyl-2-(methylsulfonyl) propanamide]",–,2000 pM,0.5 µg/mL
"C[C@@](C[C@H]1CC(c2ccc(-c3ccc(CCO)cc3)cc2)=NO1)(C(=O)NO)S(C)(=O)=O [Compound 40, (R)—N-hydroxy-3-((R)-3-(4′-(2-hydroxyethyl)-[1,1′-biphenyl]-4-yl)-4,5-dihydroisoxazol-5-yl)-2-methyl-2-(methylsulfonyl)]",0.16 µg/mL,500 pM,–
"C[C@@](C[C@H]1CC(c2ccc(-c3ccncc3F)cc2)=NO1)(C(=O)NO)S(C)(=O)=O [Compound 42, (R)-3-((R)-3-(4-(3-fluoropyridin-4-yl)phenyl)-4,5-dihydroisoxazol-5-yl)-N-hydroxy-2-methyl-2-(methylsulfonyl)propanamide]",0.25 µg/mL,500 pM,–
"C[C@@](C[C@H]1CC(c2ccc(-n3nccn3)cc2)=NO1)(C(=O)NO)S(C)(=O)=O [Compound 43, (R)-3-((R)-3-(4-(2H-1,2,3-triazol-2-yl)phenyl)-4,5-dihydroisoxazol-5-yl)-N-hydroxy-2-methyl-2-(methylsulfonyl)propanamide]",1.4 µg/mL,5000 pM,–
"COC1CC(C#Cc2ccc(C3=NO[C@@H](C[C@](C)(C(=O)NO)S(C)(=O)=O)C3)cc2)C1 (stereo partly drawn) [Compound 44, (R)—N-hydroxy-3-((R)-3-(4-((3-methoxycyclobutyl)ethynyl)phenyl)-4,5-dihydroisoxazol-5-yl)-2-methyl-2-(methylsulfonyl)propanamide]",0.5 µg/mL,800 pM,–
"COCCOc1ccc(-c2ccc(C3=NO[C@@H](C[C@](C)(C(=O)NO)S(C)(=O)=O)C3)cc2)cc1 [Compound 48, (R)—N-hydroxy-3-((R)-3-(4′-(2-methoxyethoxy)-[1,1′-biphenyl]-4-yl)-4,5-dihydroisoxazol-5-yl)-2-methyl-2-(methylsulfonyl)propanamide]",0.25 µg/mL,1000 pM,–
"C[C@@H](O)c1ccc(-c2ccc(C3=NO[C@@H](C[C@](C)(C(=O)NO)S(C)(=O)=O)C3)cc2)cc1 [Compound 49, (R)—N-hydroxy-3-((R)-3-(4′-((R)-1-hydroxyethyl)-[1,1′-biphenyl]-4-yl)-4,5-dihydroisoxazol-5-yl)-2-methyl-2-(methylsulfonyl)]",0.25 µg/mL,1000 pM,–

# The remaining compounds from weak to strong by MIC (P. aeruginosa PAO1; [1]), led by results:
MIC (P. aeruginosa PAO1; [1]),IC50 (P. aeruginosa LpxC),Compound,MIC (P. aeruginosa PAO1)
1 µg/mL,2000 pM,"CC(C)(O)[C@H]1C[C@@H](C#Cc2ccc(C3=NO[C@@H](C[C@](C)(C(=O)NO)S(C)(=O)=O)C3)cc2)C1 [Compound 39B, (R)—N-hydroxy-3-((R)-3-(4-(((1 s,3S)-3-(2-hydroxypropan-2-yl)cyclobutyl)ethynyl)phenyl)-4,5-dihydroisoxazol-5-yl)-2-methyl-2-(methylsulfonyl)propanamide]",–
0.5 µg/mL,< 500 pM,"C[C@@](C[C@H]1CC(c2ccc(C#CCCF)cc2)=NO1)(C(=O)NO)S(C)(=O)=O [Compound 22, (R)-3-((R)-3-(4-(4-fluorobut-1-yn-1-yl)phenyl)-4,5-dihydroisoxazol-5-yl)-N-hydroxy-2-methyl-2-(methylsulfonyl)propanamide]",–
0.5 µg/mL,2000 pM,"C[C@@](C[C@H]1CC(c2ccc(CCCCF)cc2)=NO1)(C(=O)NO)S(C)(=O)=O [Compound 34, (R)-3-((R)-3-(4-(4-fluorobutyl)phenyl)-4,5-dihydroisoxazol-5-yl)-N-hydroxy-2-methyl-2-(methylsulfonyl) propanamide]",–
0.5 µg/mL,500 pM,"CC(C)(O)[C@H]1C[C@H](C#Cc2ccc(C3=NO[C@@H](C[C@](C)(C(=O)NO)S(C)(=O)=O)C3)cc2)C1 [Compound 39A, (R)—N-hydroxy-3-((R)-3-(4-(((1 r,3R)-3-(2-hydroxypropan-2-yl)cyclobutyl)ethynyl)phenyl)-4,5-dihydroisoxazol-5-yl)-2-methyl-2-(methylsulfonyl)propanamide]",–
0.35 µg/mL,600 pM,"C[C@@](C[C@H]1CC(c2ccc(-c3ccc(CN4CCOCC4)cc3)cc2)=NO1)(C(=O)NO)S(C)(=O)=O [Compound 47, (R)—N-hydroxy-2-methyl-2-(methylsulfonyl)-3-((R)-3-(4′-(morpholinomethyl)-[1,1′-biphenyl]-4-yl)-4,5-dihydroisoxazol-5-yl)]",–
0.16 µg/mL,600 pM,"C[C@@H](O)Cc1ccc(-c2ccc(C3=NO[C@@H](C[C@](C)(C(=O)NO)S(C)(=O)=O)C3)cc2)cc1 [Compound 45, (R)—N-hydroxy-3-((R)-3-(4′-((R)-2-hydroxypropyl)-[1,1′-biphenyl]-4-yl)-4,5-dihydroisoxazol-5-yl)-2-methyl-2-(methylsulfonyl)]",–
0.125 µg/mL,600 pM,"C/C=C(\F)c1ccc(C2=NO[C@@H](C[C@](C)(C(=O)NO)S(C)(=O)=O)C2)cc1 [Compound 29, (R)-3-((R)-3-(4-((Z)-1-fluoroprop-1-en-1-yl)phenyl)-4,5-dihydroisoxazol-5-yl)-N-hydroxy-2-methyl-2-(methylsulfonyl)propanamide]",–
0.125 µg/mL,500 pM,"C[C@@](C[C@H]1CC(c2ccc(-c3ccc(CO)cc3)cc2)=NO1)(C(=O)NO)S(C)(=O)=O [Compound 41, (R)—N-hydroxy-3-((R)-3-(4′-(hydroxymethyl)-[1,1′-biphenyl]-4-yl)-4,5-dihydroisoxazol-5-yl)-2-methyl-2-(methylsulfonyl)]",–
0.125 µg/mL,1000 pM,"C[C@H](O)Cc1ccc(-c2ccc(C3=NO[C@@H](C[C@](C)(C(=O)NO)S(C)(=O)=O)C3)cc2)cc1 [Compound 46, (R)—N-hydroxy-3-((R)-3-(4′-((S)-2-hydroxypropyl)-[1,1′-biphenyl]-4-yl)-4,5-dihydroisoxazol-5-yl)-2-methyl-2-(methylsulfonyl)]",–
